Experimental data taken from PMC6609550, “Blockade of the forward Na^+/Ca^2+ exchanger suppresses the growth of glioblastoma cells through Ca^2+‐mediated cell death” (British Journal of Pharmacology, 2019).

Columns and labels:
[1] = Cell viability assay (Cell Counting Kit-8), ranges given for U87 and U251 together; format: cell-based, Human; conditions: human, U87 and U251 cells, read-out: Cell viability, % of control level
Description: (§1) Cell viability was determined by using a Cell Counting Kit‐8 (Dojindo, Japan). Briefly, cells were harvested from flasks and plated in 96‐well cell culture plates at 5 × 10^3 per well and cultured overnight. Cells were treated with test reagents for 72 hr. Control cells were treated with cell culture medium and measured at the same time point as treatment groups. CCK‐8 solution (10 μl) was added to each well of the 96‐well plates, and the cultures were incubated for 30 min at 37°C. Absorbance at 450 nm was measured using an automatic microplate reader (Molecular Devices, San Jose, CA, USA).

[2] = system: p38‐MAPK; test: Western blot of phosphorylated and total p38-MAPK in U87 cells; format: cell-based, Human; conditions: 25 μM, 10, 30, 60 and 90 min
Description: After treatment with bepridil for 0, 30, 60, and 90 min, cells were collected and lysed in RIPA buffer (Beyotime, Nanjing, China) supplemented with protease inhibitor (Beyotime). The total protein concentration of each sample was determined using the BCA Protein Assay Kit (Sangon Biotech, Shanghai, China). Equal protein extracts (45‐μg protein per lane) were separated by SDS‐PAGE and electrophoretically transferred to PVDF membranes (Millipore, Bedford, MA, USA). Then, the membranes were incubated with anti‐phosphorylated and total http://www.guidetopharmacology.org/GRAC/FamilyDisplayForward?familyId=514, http://www.guidetopharmacology.org/GRAC/FamilyDisplayForward?familyId=518, and http://www.guidetopharmacology.org/GRAC/FamilyDisplayForward?familyId=519 antibodies (1:1,000; Cell Signaling Technology) at 4°C overnight, followed by incubation with IRDye 680LT fluorescent secondary antibody (LI‐COR Biosciences, Lincoln, NE, USA). Proteins were visualized using the Odyssey Fc Imaging System (LI‐COR Biosciences, Lincoln, NE, USA). Mouse α‐tubulin antibody was used as protein loading controls. The immuno‐related procedures used comply with the recommendations made by the British Journal of Pharmacology (Alexander et al., 2018).

[3] = system: U87‐Luc xenografts; test: U87-luciferase intracranial xenograft, in vivo bioluminescent imaging; parameters: species or system athymic BALB/c nude mice; conditions: 50 mg·kg^−1 p.o. once a day for 14 days, from 16 days after implantation; n = 5 mice per group
Description: The athymic BALB/c nude mice were anaesthetized by subjecting them to 3% isoflurane (RWD Life Science, Shenzhen, China) in a mixture of 30% O2 and 70% N2O. […] The mouse head was maintained within a stereotactic frame (RWD Life Science), allowing a precise and reproducible injection. The coordinate of the injection site was 0.5 mm anterior and 2.5 mm right from the bregma and at a depth of 3 mm. U87-Luc cells (COBIOER) were assessed by the trypan blue exclusion assay. Only cell suspensions with greater than 95% viability were used and implanted into the right striatum of nude mice. U87-Luc cells (5 × 10^5 in 5-μl PBS) were inoculated into the right striatum of each mouse at a controlled flow rate of 0.5 μl·min^-1, and the total injection volume was about 5 μl. […] Tumours were measured by bioluminescence using an IVIS Spectrum CT Imaging System (PerkinElmer, Waltham, MA, USA), which captured the luminescence signal emitted from the engrafted tumour. […] Signal intensity was quantified within a region of interested over the head, as defined by Living Image software. All images represent 2-min exposure time, and the average number of photons·s^-1·cm^-2 per steradian were recorded. The data were analysed using Living Image 4.4.5 software (PerkinElmer, RRID:SCR_014247).

[4] = parameters: method as in Lipsanen et al., 2013; Mitterreiter et al., 2010; conditions: oral administration or intraperitoneal injection at 50 mg·kg^−1 body weight, two animal studies; ref Lipsanen et al., 2013; Mitterreiter et al., 2010; cited from earlier work
[5] = system: U87 and U251 cells; test: Cell viability assay (Cell Counting Kit-8), ranges given for U87 and U251 together; format: cell-based, Human; conditions: 72 hr
Description: as §1

SMILES | viability at 72 h, 20 µM ([1]; 20 μM) [%] | viability at 72 h, 50 µM ([1]; 50 μM) [%] | viability at 72 h, 100 µM ([1]; 100 μM) [%] | Effect on p38-MAPK activity [2] | Growth of brain-grafted U87-Luc tumour (bioluminescence) [3] | Penetration of the blood–brain barrier [4] | Cell viability, % of control level ([5]; 20 μM) | Cell viability, % of control level ([5]; 50 μM) | Cell viability, % of control level ([5]; 100 μM)
CC(C)COCC(CN(Cc1ccccc1)c1ccccc1)N1CCCC1 (stereo not drawn) [Bepridil, N‐benzyl‐N‐(3‐isobutoxy‐2‐pyrrolidin‐1‐yl‐propyl)aniline] | 30 to 40 | 6 to 7 | 3 to 4 | activated | successfully restrained tumour growth | able to penetrate the blood–brain barrier (BBB) and reach the brain |  |  | 
CS(=O)(=O)O.N=C(N)SCCc1ccc(OCc2ccc([N+](=O)[O-])cc2)cc1 [KB‐R7943, 2‐[4‐[(4‐nitrophenyl)methoxy]phenyl]ethyl ester carbamimidothioic acid methanesulfonate] |  |  |  |  |  |  | 50–60% | 7–18% | 2–3%
